Test results as given in US8729134B2, “Aryl di-substituted propenone compounds” (Heartlink Limited, priority 2008, dated 2014).
Converted amounts (≈) assume the structure as drawn. “Also recorded” adds a separate entry of the source. Read-outs that look alike come from different tables or passages of the source.

Legend:
[1] = test system: MCF-7 cells (human, mammary, adenocarcinoma cell line); test: MTT cell viability assay, MCF-7 cells; format: cell-based; conditions: MCF7, 48 hours incubation, read-out: IC50, inhibition of MCF7 cells
Method: (§1) Compounds II-IV were compared with genistein to test the cell viability of MCF-7 cells (human, mammary, adenocarcinoma cell line) and MDA-MB-435 cells (human mammary ductal carcinoma).
(§2) Cell viability was tested using the MTT assay (Amersham). The MTT [3-(4,5-dimethylthiazol-2-yl)-2,5-diphenyltetrazolium bromide] assay, was first described by Mosmann in 1983, (J Immunol Methods. 1983 Dec. 16; 65(1-2):55-63). The assay is based on the ability of a mitochondrial dehydrogenase enzyme from viable cells to cleave the tetrazolium rings of the pale yellow MTT and form a dark blue formazan crystals which is largely impermeable to cell membranes, thus resulting in accumulation within healthy cells. Solubilisation of the cells by the addition of a detergent results in the liberation of the crystals which are then solubilized. The number of surviving cells is directly proportional to the level of the formazan product created. The colour can then be quantified using a simple colorimetric assay. The results can be read on a multi-well scanning spectrophotometer (ELISA reader).
(§3) Cells were plated at predetermined densities in 96 well plates. These were then incubated for 24 hours at 37° C. with 5%; CO2. Growth medium was then removed and replaced with 100 μl of growth medium containing various dilutions of test reagents or appropriate controls.
(§4) Plates were then incubated for a either 48 or 96 hours.
(§5) MTT reagent was then added to each well. The plates were then incubated in a 37° C./5% CO2 incubator. Detergent reagent was then added to each well. The plates were incubated overnight at 37° C./5% CO2. The absorbance was read at 570 nm.

[2] = test system: MDA-MB-435 cells (human mammary ductal carcinoma); test: MTT cell viability assay, MDA-MB-435 cells; format: cell-based; conditions: 48 hours incubation, read-out: IC50, inhibition of MDA-MB-435 cell line
Method: as §1, §2, §3, §4, §5

[3] = test system: LNCaP cells (human prostate carcinoma); test: MTT cell viability assay, LNCaP cells; format: cell-based; conditions: 48 hours incubation
Method: as §2, §3, §4, §5
(§6) Compounds II-IV were compared with genistein to test the cell viability of LNCaP, PC3 and DU-145 cell lines (human prostate carcinoma).

[4] = test system: PC3 cells (human prostate carcinoma); test: MTT cell viability assay, PC3 cells; format: cell-based; conditions: PC-3, read-out: IC 50, inhibition in PC3 cells
Method: as §2, §3, §4, §5, §6

[5] = test system: DU-145 cells (human prostate carcinoma); test: MTT cell viability assay, DU-145 cells; format: cell-based; conditions: 48 hours incubation
Method: as §2, §3, §4, §5, §6

[6] = test system: JAM (ovarian carcinoma) cells; test: MTT cell viability assay, JAM cells; format: cell-based; conditions: for IC50: Ovarian carcinoma cell, 96 hours incubation, read-out: IC 50, inhibition of JAM cells
Method: as §2, §3, §4, §5
Compound IV was compared with genistein to test the cell viability of JAM (ovarian carcinoma) and HELA (human cervical carcinoma) cell lines.

[7] = test system: SK-OV-3 (ovarian adenocarcinoma) cells; test: MTT cell viability assay, SK-OV-3 cells; format: cell-based; conditions: Homo sapiens, read-out: IC 50, inhibition in SK-OV-3 cells
Method: as §2, §3, §4, §5
(§7) Also, Compounds II-IV were compared with genistein to test the cell viability of SK-OV-3 (ovarian adenocarcinoma), OVCAR-3 (ovarian adenocarcinoma), and C-33A (cervical carcinoma) cell lines.

[8] = test system: OVCAR-3 (ovarian adenocarcinoma) cells; test: MTT cell viability assay, OVCAR-3 cells; format: cell-based; conditions: Homo sapiens, read-out: IC 50, inhibition in OVCAR-3 cells
Method: as §2, §3, §4, §5, §7

[9] = test system: C-33A (cervical carcinoma) cells; test: MTT cell viability assay, C-33A cells; format: cell-based; conditions: Homo sapiens, 48 hours incubation, read-out: IC 50, inhibition of C-33A cells
Method: as §2, §3, §4, §5, §7

[10] = test system: B16-F1 cells (murine melanoma); test: MTT cell viability assay, B16-F1 cells; format: cell-based; conditions: Mus musculus, 96 hours incubation, read-out: IC 50, inhibition of B16-F1 cells
Method: as §2, §3, §4
(§8) MTT reagent was then added to each well. The plates were then incubated in a 37° C./5% CO2 incubator. Detergent reagent was then added to each well. […] The absorbance was read at 570 nm. […]

[11] = test system: SK-MEL-28 (human malignant melanoma) cell line; test: MTT cell viability assay, SK-MEL-28 cells; format: cell-based; conditions: read-out: IC 50, inhibition in SK-MEL-28 cells
Method: as §2, §3, §4, §5
Compounds II, III and IV were compared with genistein to test the cell viability of SK-MEL-28 (human malignant melanoma) cell line.

[12] = test system: AB1 cells (murine myeloma); test: MTT cell viability assay, AB1 cells; format: cell-based; conditions: Mus musculus, 96 hours incubation, read-out: IC 50, inhibition of AB1 cells
Method: as §2, §3, §4, §8

[13] = test system: human DU145 prostate tumour cells (xenograft); test: Anti-tumour efficacy in DU145 xenograft mouse model; format: in vivo, mice
Method: The cell lines were cultured and prepared for inoculation according to standard protocols.
(§9) Female athymic mice (54) were implanted subcutaneously in the right hind flank with human DU145 prostate tumour cells (5×10^6). Tumour formation and growth were monitored until the tumours reached an average 25 mm^2 area (5 mm×5 mm). Mice were randomised into groups based upon tumour area (mean tumour area in individual groups ranged from 22 mm^2-33 mm^2). Compositions of Compounds II and III were prepared in a solution of 5% DMSO, 10% Tween 80 in PBS and administered intraperitoneally in a volume of 100 μl at doses of 50, 25, and 10 mg/kg to individual eight week old female Balb/c mice for 14 days. Vehicle control was 5% DMSO, 10% Tween 80 in PBS.

[14] = Tolerability in the xenograft mouse model; format: in vivo; conditions: doses of 50, 25 and 10 mg/kg intraperitoneally for 14 days
Method: as §9

[15] = test system: HELA (human cervical carcinoma) cells; test: MTT cell viability assay, HELA cells; format: cell-based; conditions: 96 hour incubation, read-out: IC 50, inhibition of HELA cells
Method: as §2, §3, §4, §8

[16] = read-out: IC 50, inhibition of LNCaP cells
[17] = read-out: IC 50, inhibition of DU-145 cells

Row | SMILES | IC50 [1] [µM] | IC50 [2] [µM] | IC50 [3, 16] [µM] | IC50 [4] [µM] | IC50 [7] [µM] | IC50 [8] [µM] | IC50 [9] [µM] | IC50 [10] [mg/L] | IC50 [11] [µM] | IC50 [12] [mg/L] | IC50 [5, 17] [µM] | tolerability / toxicity in the animals [14] | IC50 [6] [mg/L] | also measured
1 | C=C(C(=O)c1ccc(OC)cc1OC)c1ccc(OC)c(OC)c1 [Compound IV, 1-(2,4-dimethoxyphenyl)-2-(3,4-dimethoxyphenyl)prop-2-en-1-one] | 6.8 | 6.8 | 6.1 | 8.7 | 27.4 | 16.9 | 2.4 | 1.6 (≈ 4.87 µM) | 3.5 | 1.1 (≈ 3.35 µM) |  |  |  | IC50 ([5]; read-out: IC 50, inhibition of DU-145 cells (unit inferred)): 10.7 µM; cytotoxic potency compared with genistein ([6]; JAM and HELA cell lines): more potent as a cytotoxic agent than genistein
2 | C=C(C(=O)c1ccc(OC)c(OC)c1OC)c1ccc(OC)cc1 [Compound II, 1-(2,3,4-trimethoxyphenyl)-2-(4-methoxyphenyl)prop-2-en-1-one] | 2.2 | 0.6 | 2.3 | 2.7 | 21.5 | 3.3 | 1.8 |  | 3.5 |  | 4.8 | better tolerated by the animals than Compound III; also recorded: neither compound resulted in unacceptable toxicity |  | reduction mean tumour growth relative to the control group ([13]; 10 mg/kg intraperitoneally for 14 days, at the completion of treatment): 42%; statistical significance of tumour growth inhibition ([13]; 25 mg/kg and 10 mg/kg treatment groups, t-test P<0.05): statistically significant; tumour growth relative to control animals treated with vehicle alone (in words) ([13]; 50, 25, 10 mg/kg intraperitoneally, 14 days): caused delay in the growth of DU-145 tumours; also recorded: clearly inhibited tumour growth; anti-tumour effect, comparison between Compounds II and III ([13]; DU145 xenograft, 50, 25, 10 mg/kg): has the most anti-tumour effect; also recorded: superior anti-tumour effect in comparison with Compound III; tumour size following the cessation of treatment ([13]; after the 14 day treatment, entire study period): tumours remained smaller
3 | C=C(C(=O)c1cc(OC)c(OC)cc1OC)c1ccc(OC)c(OC)c1 [Compound III, 1-(2,4,5-trimethoxyphenyl)-2-(3,4-dimethoxyphenyl)prop-2-en-1-one] | 3 | 3.8 | 5 | 8.6 | 33.1 | 11.7 | 3.1 |  | 5.5 |  | 15 | neither compound resulted in unacceptable toxicity |  | 
4 | COc1ccc(C(=O)Cc2ccc(OC)c(OC)c2)c(OC)c1 [Compound V, 1-(2,4-dimethoxyphenyl)-2-(3,4-dimethoxyphenyl)ethanone] |  |  |  |  |  |  |  |  |  |  |  |  | 0.9 (≈ 2.84 µM) | IC50 [15]: 3 mg/L (≈ 9.48 µM)
5 | O=c1c(-c2ccc(O)cc2)coc2cc(O)cc(O)c12 [genistein, reference compound] | 79.4 | > 100 |  |  |  |  | 41.9 | 4.5 (≈ 16.7 µM) |  | 1.1 (≈ 4.07 µM) | 78.9 |  | 9.7 (≈ 35.9 µM) | IC50 ([3]; genistein, read-out: IC, inhibition of LNCaP cells): 59.5 µM
